Assay: relative permittivity at zero frequency (dimensionless)
Details: Liquid

Cc1ccccc1 [toluene]
Reentrant cavity resonator
Details | relative permittivity at zero frequency
290.63 K, 100 kPa | 2.40453
290.65 K, 100 kPa | 2.40448
290.69 K, 2170 kPa | 2.41272
290.77 K, 4240 kPa | 2.41409
290.81 K, 6310 kPa | 2.41721
290.83 K, 8370 kPa | 2.4202
290.87 K, 12510 kPa | 2.42629
290.88 K, 16100 kPa | 2.43136
290.9 K, 16650 kPa | 2.4322
291.15 K, 100 kPa | 2.3983
292.65 K, 100 kPa | 2.40346
294.8 K, 100 kPa | 2.39092
310.68 K, 100 kPa | 2.35675
310.79 K, 100 kPa | 2.35646
311.94 K, 100 kPa | 2.35363
314.47 K, 100 kPa | 2.3479
315.68 K, 100 kPa | 2.34035
315.77 K, 100 kPa | 2.33999
315.78 K, 1140 kPa | 2.34185
315.78 K, 8370 kPa | 2.35428
315.79 K, 2170 kPa | 2.34366
315.79 K, 3200 kPa | 2.34545
315.79 K, 4240 kPa | 2.34729
315.79 K, 6310 kPa | 2.35078
315.79 K, 12510 kPa | 2.36095
315.79 K, 16650 kPa | 2.3674
315.79 K, 19410 kPa | 2.37152
320.64 K, 100 kPa | 2.32926
320.66 K, 1140 kPa | 2.33114
324.52 K, 100 kPa | 2.32053
324.53 K, 1140 kPa | 2.32241
324.54 K, 2170 kPa | 2.32435
324.54 K, 3200 kPa | 2.32625
324.54 K, 4240 kPa | 2.32811
324.54 K, 6310 kPa | 2.33179
324.58 K, 8370 kPa | 2.33528
324.61 K, 12510 kPa | 2.34222
324.62 K, 16650 kPa | 2.34897
339.31 K, 100 kPa | 2.28784
339.35 K, 2170 kPa | 2.2919
339.38 K, 4240 kPa | 2.29596
339.38 K, 6310 kPa | 2.29992
339.39 K, 8370 kPa | 2.3038
339.41 K, 12510 kPa | 2.31127
339.41 K, 16650 kPa | 2.31844
357.44 K, 6310 kPa | 2.26156
357.45 K, 2170 kPa | 2.25261
357.45 K, 4240 kPa | 2.25717
357.46 K, 100 kPa | 2.24793
357.52 K, 8370 kPa | 2.26578
357.54 K, 12510 kPa | 2.274
357.55 K, 16650 kPa | 2.28185
390.53 K, 170 kPa | 2.17781
390.53 K, 2170 kPa | 2.18342
390.59 K, 100 kPa | 2.17698
390.59 K, 4240 kPa | 2.18899
390.61 K, 6310 kPa | 2.19431
390.63 K, 8370 kPa | 2.19969
390.65 K, 12510 kPa | 2.20969
390.68 K, 16650 kPa | 2.21925
405.84 K, 2170 kPa | 2.14947
406.3 K, 6310 kPa | 2.16081
406.32 K, 4240 kPa | 2.15467
406.37 K, 8370 kPa | 2.16653
406.54 K, 12510 kPa | 2.17721
406.64 K, 16650 kPa | 2.18731

Details | relative permittivity at zero frequency
297.37 K, 34905 kPa | 2.443
297.37 K, 41879 kPa | 2.4564
297.38 K, 27906 kPa | 2.4276
297.39 K, 20942 kPa | 2.4127
297.4 K, 13927 kPa | 2.3962
297.41 K, 6919 kPa | 2.3777
